Test results from patent US20070032513A1, “Quinazoline derivatives” (priority 2003, published 2007).

Key:
EGFR tyrosine kinase = target: T1, EGFR tyrosine kinase (Homo sapiens, UniProt P00533); assay: Protein tyrosine kinase phosphorylation assay, Test (a); format: biochemical; details: recombinant intracellular fragment, ATP at Km concentration; read-out: IC50 (nM) Test (a) (Inhibition of EGFR tyrosine kinase protein phosphorylation)
T1 construct: Recombinant intracellular fragments of EGFR, erbB2 and erbB4; made in house; host or cells: baculovirus/Sf21 insect cells (cleared lysate used)
Procedure: This test measures the ability of a test compound to inhibit the phosphorylation of a tyrosine containing polypeptide substrate by EGFR, erbB2 or erbB4 tyrosine kinase enzyme.
Recombinant intracellular fragments of EGFR, erbB2 and erbB4 (accession numbers X00588, X03363 and L07868 respectively) were cloned and expressed in the baculovirus/Sf21 system. Lysates were prepared from these cells by treatment with ice-cold lysis buffer (20 mM N-2-hydroxyethylpiperizine-N′-2-ethanesulfonic acid (HEPES) pH7.5, 150 mM NaCl, 10% glycerol, 1% Triton X-100, 1.5 mM MgCl2, 1 mM ethylene glycol-bis(β-aminoethyl ether) N′,N′,N′,N′-tetraacetic acid (EGTA), plus protease inhibitors and then cleared by centrifugation.
Constitutive kinase activity of these recombinant proteins was determined by their ability to phosphorylate a synthetic peptide (made up of a random co-polymer of Glutamic Acid, Alanine and Tyrosine in the ratio of 6:3:1). Specifically, Maxisorb™ 96-well immunoplates were coated with synthetic peptide (0.2 μg of peptide in a 200 μl phosphate buffered saline (PBS) solution and incubated at 4° C. overnight). Plates were washed in 50 mM HEPES pH 7.4 at room temperature to remove any excess unbound synthetic peptide. EGFR or erbB2 activities were assessed by incubation in peptide coated plates for 20 minutes at room temperature in 100 mM HEPES pH 7.4 at room temperature, adenosine trisphosphate (ATP) at Km concentration for the respective enzyme, 10 mM MnCl2, 0.1 mM Na3VO4, 0.2 mM DL-dithiothreitol (DIT), 0.1% Triton X-100 with test compound in DMSO (final concentration of 2.5%). Reactions were terminated by the removal of the liquid components of the assay followed by washing of the plates with PBS-T (phosphate buffered saline with 0.5% Tween 20).
The immobilised phospho-peptide product of the reaction was detected by immunological methods. Firstly, plates were incubated for 90 minutes at room temperature with anti-phosphotyrosine primary antibodies that were raised in the mouse (4G10 from Upstate Biotechnology). Following extensive washing, plates were treated with Horseradish Peroxidase (HRP) conjugated sheep anti-mouse secondary antibody (NXA931 from Amersham) for 60 minutes at room temperature. After further washing, HRP activity in each well of the plate was measured colorimetrically using 22′-Azino-di-[3-ethylbenzthiazoline sulfonate (6)] diammonium salt crystals (ABTS™ from Roche) as a substrate.
Quantification of colour development and thus enzyme activity was achieved by the measurement of absorbance at 405 nm on a Molecular Devices ThermoMax microplate reader. Kinase inhibition for a given compound was expressed as an IC50 value. […] The range of phosphorylation was calculated from the positive (vehicle plus ATP) and negative (vehicle minus ATP) control values.

KB cells = assay: EGFR driven KB cell proliferation assay, Test (b); format: cell-based; details: Homo sapiens, 96 h, EGF 1 ng/ml, incubation for 4 days, MTT
Procedure: This assay measures the ability of a test compound to inhibit the proliferation of KB cells (human naso-pharangeal carcinoma obtained from the American Type Culture Collection (ATCC)).
KB cells were cultured in Dulbecco's modified Eagle's medium (DMEM) containing 10% foetal calf serum, 2 mM glutamine and non-essential amino acids at 37° C. in a 7.5% CO2 air incubator. Cells were harvested from the stock flasks using Trypsin/ethylaminediaminetetraacetic acid EDTA). Cell density was measured using a haemocytometer and viability was calculated using trypan blue solution before being seeded at a density of 1.25×10^3 cells per well of a 96 well plate in DMEM containing 2.5% charcoal stripped serum, 1 mM glutamine and non-essential amino acids at 37° C. in 7.5% CO2 and allowed to settle for 4 hours.
Following adhesion to the plate, the cells are treated with or without EGF (final concentration of 1 ng/ml) and with or without compound at a range of concentrations in dimethylsulfoxide (DMSO) (0.1% final) before incubation for 4 days. Following the incubation period, cell numbers were determined by addition of 50 μl of 3-(4,5-Dimethylthiazol-2-yl)-2,5-diphenyltetrazolium bromide (MTT) (stock 5 mg/ml) for 2 hours. MIT solution was then tipped off, the plate gently tapped dry and the cells dissolved upon the addition of 100 μl of DMSO.
Absorbance of the solubilised cells was read at 540 nm using a Molecular Devices ThermoMax microplate reader. Inhibition of proliferation was expressed as an IC50 value. […] The range of proliferation was calculated from the positive (vehicle plus EGF) and negative (vehicle minus EGF) control values.

T1 sequence (P00533 669-1210 limits assumed): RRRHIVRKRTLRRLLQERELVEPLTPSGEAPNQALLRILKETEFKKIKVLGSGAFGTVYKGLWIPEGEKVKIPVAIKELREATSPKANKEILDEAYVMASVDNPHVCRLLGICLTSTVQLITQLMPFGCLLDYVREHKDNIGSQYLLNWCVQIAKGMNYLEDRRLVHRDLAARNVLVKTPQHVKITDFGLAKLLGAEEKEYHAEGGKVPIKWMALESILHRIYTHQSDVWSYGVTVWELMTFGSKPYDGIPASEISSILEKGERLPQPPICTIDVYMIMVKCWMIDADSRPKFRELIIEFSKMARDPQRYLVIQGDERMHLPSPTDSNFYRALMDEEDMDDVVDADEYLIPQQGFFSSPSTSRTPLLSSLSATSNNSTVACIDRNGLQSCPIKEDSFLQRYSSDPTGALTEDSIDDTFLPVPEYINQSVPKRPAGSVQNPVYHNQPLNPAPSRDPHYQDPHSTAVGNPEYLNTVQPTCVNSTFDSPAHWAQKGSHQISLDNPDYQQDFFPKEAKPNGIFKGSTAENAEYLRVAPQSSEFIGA

| melting point [°C] | IC50 (EGFR tyrosine kinase) [nM] | IC50 (KB cells) [nM] | SMILES |
| --- | --- | --- | --- |
| 73 to 77 | 217 | 119 | COCC(=O)N1CC[C@@H](Oc2cc3ncnc(Nc4cccc(Cl)c4F)c3cc2OC)C1 [Example 5, N-(3-Chloro-2-fluorophenyl)-6-methoxy-7-{[(3R)-1-(methoxyacetyl)pyrrolidin-3-yl]oxy}quinazolin-4-amine] |
| – | 17 | 71 | COc1cc2c(Nc3cccc(Cl)c3F)ncnc2cc1OC1CN(C(=O)[C@H](C)O)C1 [Example 3] |
| – | 8 | 48 | COc1cc2c(Nc3cccc(Cl)c3F)ncnc2cc1OC1CN(C(=O)[C@@H](C)O)C1 [Example 4, (2R)-1-[3-({4-[3-Chloro-2-fluoroanilino]-6-methoxyquinazolin-7-yl}oxy)azetidin-1-yl]-1-oxopropan-2-ol] |
| – | 41 | 397 | COc1cc2c(Nc3cccc(Cl)c3F)ncnc2cc1OC1CCN(C(=O)C2CCC(=O)N2)CC1 (stereo not drawn) [6[5], 5-{[4-({4-[3-chloro-2-fluoroanilino]-6-methoxyquinazolin-7-yl}oxy)piperidin-1-yl]carbonyl}pyrrolidin-2-one] |
